Read-outs that look alike come from different tables or passages of the source.
Tests used:
[1] = tested on: primary cells of intestinal cancer; assay: Effect of different concentrations of factors in CA-1 medium on proliferation (ratio of cell number to Blank Control); format: cell-based, human
[2] = tested on: primary cells of intestinal cancer; assay: Effect of single additives in Basic Medium on proliferation of primary cells of intestinal cancer (cell count); format: cell-based, human; parameters: key: +: compared with the Basic Medium, the medium added with the additive(s) has the effect of promoting the proliferation of primary cells of intestinal cancer isolated from intestinal cancer tissue in at least two cases; −: the medium added with the additive(s) has the effect of inhibiting the proliferation of primary cells of intestinal cancer isolated from intestinal cancer tissue in at least one case; ∘: the medium added with the additive(s) has no significant effect on the proliferation of primary cells of intestinal cancer isolated from intestinal cancer tissue in at least two cases
Protocol: First, Basic Medium was prepared. The formulation of Basic Medium is: DMEM/F12 medium (purchased from Corning)+5 μM Y27632 (purchased from MCE)+5% (v/v) fetal bovine serum (purchased from Excell Bio)+100 μg/mL Primocin (purchased from InvivoGen, 0.2% (v/v), the concentration of commercial product is 50 mg/ml).
Different types of additives (see Table 1) were added to the Basic Medium to prepare the culture mediums for primary cells of intestinal cancer containing different components.
The culture mediums of different components as shown in Table 1 were added into a 48-well plate at a volume of 1 mL/well. Primary cells of intestinal cancer isolated from two cases of intestinal cancer tissues (numbered OE0042 and OE(E)003) according to the above step (2) were inoculated into the 48-well culture plate at a cell density of 3×10^4 cells/well, and were cultured at 37° C., under 5% CO2 concentration. After culturing for 7-10 days, when the cells grew to 85%, the culture medium was discarded, and 100 μL/well of 0.05% trypsin (purchased from Gibco) was used to rinse the cells once. After the trypsin was removed, 200 μL of 0.05% trypsin was added to each well. The plate was then placed in a 37° C., 5% CO2 incubator for 10 minutes, and the cells were observed under a microscope (CNOPTEC, BDS400), showing that the cells had completely digested. 300 μL of DMEM/F12 medium containing 10% serum (Excell Bio, FND500) was added to stop the digestion. 20 μL of the resultant was added into a cell counting plate (Countstar, specification: 50 pieces/box), and the total number of cells was counted with a cell counter (Countstar, IC1000). Specifically, Basic Medium without any additives was used as an experimental control, and the experimental results are shown in Table 1.

[3] = according to proliferation ratio vs Blank Control, FIGS. 2A-2J
[4] = additive at the final concentration in Basic Medium, samples OE0042 and OE(E)003, 7-10 days, compared with Basic Medium

Cc1cccc(-c2nn(C(=S)Nc3ccccc3)cc2-c2ccnc3ccccc23)n1 [A8301, reference compound]
amount in culture medium, more preferably [1, 3]: 200 nM | Level of promoting cell proliferation [2, 4]: −

Oc1ccc(-c2nc(-c3ccncc3)c(-c3ccc(F)cc3)[nH]2)cc1 [SB202190, reference compound]
Level of promoting cell proliferation [2, 4]: ∘

C[C@@H](N)[C@H]1CC[C@H](C(=O)Nc2ccncc2)CC1 [Y-27632, reference compound]
amount in culture medium, even more preferably [1, 3]: 5 µM | amount in culture medium, preferably [1, 3]: 2.5 to 40 µM

NC(=O)CC[C@H](N)C(=O)O [glutamine, reference compound]
Level of promoting cell proliferation [2, 4]: −

C[C@]12CCC(=O)C=C1CC[C@@H]1[C@@H]2[C@@H](O)C[C@@]2(C)[C@H]1CC[C@]2(O)C(=O)CO [hydrocortisone, reference compound]
Level of promoting cell proliferation [2, 4]: ∘

NC(=O)c1cccnc1 [nicotinamide, reference compound]
amount in the culture medium, even more preferably [1, 3]: 4 mM | amount in the culture medium, more preferably [1, 3]: 4 to 8 mM | amount in the culture medium, preferably [1, 3]: 2 to 8 mM | Level of promoting cell proliferation [2, 4]: +

CCCCC[C@H](O)/C=C/[C@H]1[C@H](O)CC(=O)[C@@H]1C/C=C\CCCC(=O)O [prostaglandin E2, reference compound]
Level of promoting cell proliferation [2, 4]: −

TGF-β1: medium additive from R&D
Level of promoting cell proliferation [2, 4]: −

basic fibroblast growth factor: medium additive, growth factor from R&D
Level of promoting cell proliferation [2, 4]: −

cholera toxin
amount in culture medium, even more preferably [1]: 5 ng/mL | Level of promoting cell proliferation [2]: +

epidermal growth factor: medium additive, growth factor from R&D (NSDSECPLSHDGYCLHDGVCMYIEALDKYACNCVVGYIGERCQYRDLKWWELR; Epidermal growth factor; UniProt P01133 971-1023, looked up)
Level of promoting cell proliferation [2, 4]: ∘

hepatocyte growth factor: medium additive, growth factor from Peprotech
Level of promoting cell proliferation [2, 4]: ∘

insulin-like growth factor-1: medium additive, growth factor from R&D
amount in culture medium, more preferably [1, 3]: 45 ng/mL | amount in culture medium, preferably [1, 3]: 5 to 405 ng/mL | Level of promoting cell proliferation [2, 4]: +

insulin: medium additive from Peprotech
amount in culture medium, even more preferably [1, 3]: 2000 ng/mL | amount in culture medium, more preferably [1, 3]: 1000 to 2000 ng/mL | amount in culture medium, preferably [1, 3]: 500 to 4000 ng/mL | Level of promoting cell proliferation [2, 4]: +
